Results as given in article PMC8119466, “A screen of FDA-approved drugs identifies inhibitors of protein tyrosine phosphatase 4A3 (PTP4A3 or PRL-3)” (Scientific Reports, 2021).
Where a name gives a salt, the structure may show the parent alone.

Columns and labels:
Format in all cases: biochemical
Details in all cases: FDA-approved drug screen; compared to DMSO
recombinant PRL-1 = biological target: T1, recombinant PRL-1 (Homo sapiens, UniProt Q93096); experiment: In vitro phosphatase assay (DiFMUP hydrolysis), PRL-1; further: test concentration or dose not given here
T1 construct: 6xHis (N, cleaved yes); made in house; host or cells: E. coli One Shot BL21 Star
T1 sequence (Q93096 1-173): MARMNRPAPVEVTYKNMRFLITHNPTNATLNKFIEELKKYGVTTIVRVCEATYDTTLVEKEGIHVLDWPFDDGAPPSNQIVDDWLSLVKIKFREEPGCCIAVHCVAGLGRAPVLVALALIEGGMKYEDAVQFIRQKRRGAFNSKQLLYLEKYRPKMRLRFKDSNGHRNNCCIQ

recombinant PRL-2 = biological target: T2, recombinant PRL-2 (Homo sapiens, UniProt Q12974); experiment: In vitro phosphatase assay (DiFMUP hydrolysis), PRL-2;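 further: PRL-2 activity read as DiFMUP hydrolysis after 20 min at room temperature with drug, enzyme first pre-reduced at 4 °C for 20 min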
T2 construct: 6xHis (N, cleaved yes); made in house; host or cells: E. coli One Shot BL21 Star
T2 sequence (Q12974 1-167): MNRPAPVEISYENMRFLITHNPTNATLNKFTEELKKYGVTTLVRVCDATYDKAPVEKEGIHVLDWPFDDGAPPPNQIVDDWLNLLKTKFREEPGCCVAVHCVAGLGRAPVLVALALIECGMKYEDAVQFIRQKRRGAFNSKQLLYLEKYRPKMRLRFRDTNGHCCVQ

recombinant PRL-3 = biological target: T3, recombinant PRL-3 (Homo sapiens, UniProt O75365); experiment: In vitro phosphatase assay (DiFMUP hydrolysis), PRL-3; further: test concentration or dose not given here
T3 construct: 6xHis (N, cleaved yes); made in house; host or cells: E. coli One Shot BL21 Star
T3 sequence (O75365 whole entry): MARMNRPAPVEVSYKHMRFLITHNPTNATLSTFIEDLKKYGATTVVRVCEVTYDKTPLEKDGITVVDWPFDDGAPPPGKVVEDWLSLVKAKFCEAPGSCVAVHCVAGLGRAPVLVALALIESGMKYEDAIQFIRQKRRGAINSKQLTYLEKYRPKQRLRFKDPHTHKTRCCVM

| SMILES | % Phosphatase Activity (compared to DMSO) PRL-1 (recombinant PRL-1) | % Phosphatase Activity (compared to DMSO) PRL-2 (recombinant PRL-2) | % Phosphatase Activity (compared to DMSO) PRL-3 (recombinant PRL-3) |
| --- | --- | --- | --- |
| CN(Cc1ccc(C(C)(C)C)cc1)Cc1cccc2ccccc12 [Butenafine HCl] | 117% | 112% | 88% |
| Clc1ccc(CCC(Cn2ccnc2)Sc2c(Cl)cccc2Cl)cc1 (stereo not drawn) [Butoconazole nitrate] | 97% | 109% | 98% |
| CCCCOC(=O)c1ccc(O)cc1 [Butylparaben] | 91% | 94% | 80% |
| CC[C@H](Nc1ncnc2[nH]cnc12)c1nc2cccc(F)c2c(=O)n1-c1ccccc1 [CAL-101 (Idelalisib, GS-1101)] | 102% | 104% | 77% |
| NC(=O)c1cc(N2CC2)c([N+](=O)[O-])cc1[N+](=O)[O-] [CB1954] | 100% | 74% | 105% |
| CC(C)C[C@H](NC(=O)[C@@H](NC(=O)c1cccc(-c2ccccc2)n1)[C@@H](C)O)B(O)O [CEP-18770 (Delanzomib)] | 103% | 98% | 82% |
| C=CC(=O)Nc1cccc(Nc2nc(Nc3ccc(N4CCN(C(C)=O)CC4)cc3OC)ncc2C(F)(F)F)c1 [CO-1686 (AVL-301)] | 93% | 82% | 98% |
| C#Cc1cccc(Nc2ncnc3cc(OC)c(OCCCCCCC(=O)NO)cc23)c1 [CUDC-101] | 94% | 87% | 79% |
| O=C(O)c1ccc2c(c1)nc(Nc1cccc(Cl)c1)c1ccncc12 [CX-4945 (Silmitasertib)] | 85% | 81% | 86% |
| CO[C@H]1C(=O)[C@]2(C)[C@@H](OC)C[C@H]3OC[C@@]3(OC(C)=O)[C@H]2[C@H](OC(=O)c2ccccc2)[C@]2(O)C[C@H](OC(=O)[C@H](O)[C@@H](NC(=O)OC(C)(C)C)c3ccccc3)C(C)=C1C2(C)C [Cabazitaxel] | 88% | 107% | 89% |
| O=C([O-])C(O)[C@H](O)[C@@H](O)[C@H](O)[C@H](O)CO.O=C([O-])C(O)[C@H](O)[C@@H](O)[C@H](O)[C@H](O)CO.[Ca+2] (stereo partly drawn) [Calcium Gluceptate] | 114% | 104% | 107% |
| Nc1nc(=O)c2c([nH]1)NC[C@H](CNc1ccc(C(=O)N[C@@H](CCC(=O)[O-])C(=O)[O-])cc1)N2C=O.[Ca+2] [Calcium Levofolinate] | 96% | 101% | 105% |
| CN(C)C(=O)COC(=O)Cc1ccc(OC(=O)c2ccc(NC(=N)N)cc2)cc1 [Camostat Mesilate] | 98% | 138% | 94% |
| CCCCCOC(=O)Nc1nc(=O)n([C@@H]2O[C@H](C)[C@@H](O)[C@H]2O)cc1F [Capecitabine] | 108% | 123% | 97% |
| C[C@H](CS)C(=O)N1CCC[C@H]1C(=O)O [Captopril] | 90% | 99% | 82% |
| C[N+](C)(C)CCOC(N)=O [Carbachol] | 91% | 100% | 82% |
| COC(=O)N/N=C/c1c[n+]([O-])c2ccccc2[n+]1[O-] [Carbadox] | 96% | 103% | 99% |
| NC(=O)N1c2ccccc2C=Cc2ccccc21 [Carbamazepine] | 98% | 112% | 80% |
| CC1(C)[C@@H](OC(=O)CCC(=O)O)CC[C@]2(C)[C@H]3C(=O)C=C4[C@@H]5C[C@@](C)(C(=O)O)CC[C@]5(C)CC[C@@]4(C)[C@]3(C)CC[C@@H]12 [Carbenoxolone Sodium] | 85% | 73% | 84% |

| SMILES | % Phosphatase Activity (compared to DMSO) PRL-1 (recombinant PRL-1) | % Phosphatase Activity (compared to DMSO) PRL-2 (recombinant PRL-2) | % Phosphatase Activity (compared to DMSO) PRL-3 (recombinant PRL-3) |
| --- | --- | --- | --- |
| C[C@@](Cc1ccc(O)c(O)c1)(NN)C(=O)O [Carbidopa] | 68% | 92% | 94% |
| CCOC(=O)n1ccn(C)c1=S [Carbimazole] | 103% | 114% | 78% |
| N.N.O=C([O-])C1(C(=O)[O-])CCC1.[Pt+2] [Carboplatin] | 90% | 79% | 85% |
| CC(C)C[C@H](NC(=O)[C@H](CCc1ccccc1)NC(=O)CN1CCOCC1)C(=O)N[C@@H](Cc1ccccc1)C(=O)N[C@@H](CC(C)C)C(=O)[C@@]1(C)CO1 [Carfilzomib (PR-171)] | 97% | 88% | 94% |
| CCCCCCNC(=O)n1cc(F)c(=O)[nH]c1=O [Carmofur] | 89% | 95% | 73% |
| CC(C(=O)O)c1ccc2c(c1)[nH]c1ccc(Cl)cc12 (stereo not drawn) [Carprofen] | 95% | 94% | 71% |
| O=c1[nH]c(=O)c2ccccc2o1 [Carsalam] | 96% | 95% | 80% |
| CC(C)(C)NCC(O)COc1cccc2c1CCC(=O)N2 (stereo not drawn) [Carteolol HCl] | 100% | 87% | 71% |
| COc1ccccc1OCCNCC(O)COc1cccc2[nH]c3ccccc3c12 (stereo not drawn) [Carvedilol] | 97% | 128% | 111% |
| NS(=O)(=O)c1ccc(C(=O)O)cc1 [Carzenide] | 105% | 98% | 89% |
| CC(=O)O.CC(=O)O.CC[C@H](C)C[C@H](C)CCCCCCCCC(=O)N[C@H]1C[C@@H](O)[C@@H](NCCN)NC(=O)[C@@H]2[C@@H](O)CCN2C(=O)[C@H]([C@H](O)CCN)NC(=O)[C@H]([C@H](O)[C@@H](O)c2ccc(O)cc2)NC(=O)[C@@H]2C[C@@H](O)CN2C(=O)[C@H]([C@@H](C)O)NC1=O [Caspofungin Acetate] | 106% | 113% | 109% |
| COc1cc2c(Oc3ccc4[nH]c(C)cc4c3F)ncnc2cc1OCCCN1CCCC1 [Cediranib (AZD2171)] | 100% | 105% | 90% |
| Cc1nnc(SCC2=C(C(=O)O)N3C(=O)[C@@H](NC(=O)Cn4cnnn4)[C@H]3SC2)s1 [Cefazolin Sodium] | 97% | 110% | 88% |
| C=CC1=C(C(=O)O)N2C(=O)[C@@H](NC(=O)/C(=N\O)c3csc(N)n3)[C@H]2SC1 [Cefdinir] | 109% | 110% | 88% |
| CO/N=C(\C(=O)N[C@@H]1C(=O)N2C(C(=O)OCOC(=O)C(C)(C)C)=C(/C=C\c3scnc3C)CS[C@H]12)c1csc(N)n1 [Cefditoren Pivoxil] | 88% | 94% | 113% |
| C=CC1=C(C(=O)O)N2C(=O)[C@@H](NC(=O)/C(=N\OCC(=O)O)c3csc(N)n3)[C@H]2SC1 [Cefixime] | 89% | 90% | 90% |
| CO/N=C(\C(=O)N[C@@H]1C(=O)N2C(C(=O)O)=C(CSc3nnnn3C)CS[C@H]12)c1csc(N)n1.CO/N=C(\C(=O)N[C@@H]1C(=O)N2C(C(=O)O)=C(CSc3nnnn3C)CS[C@H]12)c1csc(N)n1.Cl [Cefmenoxime hydrochloride] | 92% | 98% | 84% |
| CCN1CCN(C(=O)N[C@@H](C(=O)N[C@@H]2C(=O)N3C(C(=O)O)=C(CSc4nnnn4C)CS[C@H]23)c2ccc(O)cc2)C(=O)C1=O [Cefoperazone] | 100% | 94% | 89% |
